Test results published in PubChem BioAssay AID2060352 (Molecular Pharmacology Branch, DTP, NCI, 2025).
pIC50: −log10 of the molar value. Values joined by “and” are separate entries in the source; they are usually repeats but may differ in a detail not shown here. Equal entries are not always repeated.

Tested on: 616215-338-R-J1-PDC spheroid with HUVEC/MSC, viability
Assay: Anticancer human tumor 616215-338-R-J1-PDC patient-derived colon adenocarcinoma cell line growth inhibition [TAK]
Conditions: for viability, T/C: stronger effect = lower value
From the text: Combinatorial screen of targeted agents with TAK-243 and ipatasertib in multi-cell type tumor spheroids
A high-throughput screen of multi-cell type tumor spheroids was designed to identify active combinations of targeted small molecules and TAK-243 or ipatasertib. Complex spheroids include a stromal component modeled by human endothelial cells (HUVEC) and fibroblasts modeled by human mesenchymal stem cells (MSCs). The concentration ranges selected for each drug and investigational agent were based upon clinically achievable concentrations if the clinical Cmax of the agent was known.
Compounds. The drugs and investigational agents: TAK-243 (785004), ipatasertib (767898), everolimus (733504), selumetinib (741078), bortezomib (756655), trametinib (758246), ixazomib (758254), vemurafenib (761431), dabrafenib (764134), sapanisertib (764658), alpelisib (765974), and copanlisib (816437), were obtained from the National Cancer Institute (NCI) Developmental Therapeutics Program Chemical Repository. The FDA-approved anticancer drug set is available from the NCI Developmental Therapeutics Program. […] The stock solutions were prepared in dimethyl sulfoxide (DMSO, Sigma-Aldrich, St. Louis, MO, cat. D2650) at 800-fold the tested concentration and stored at -70 degrees C prior to their use. All drugs and investigational agents were tested over a range starting from a high concentration at or near the clinical Cmax and decreasing in half-log increments. If the clinical Cmax for an agent had not been determined, the highest concentration tested was 10 microM.
NCI60 Cell Culture. NCI60 cell lines were obtained from the NCI Developmental Therapeutics Program Tumor Repository. For each lot of cells, the Repository performed Applied Biosystems AmpFLSTR Identifiler testing with PCR amplification to confirm consistency with the published Identifier STR profile for each cell line. Cells were kept in continuous culture for no more than 20 passages. The optimal seeding densities for each of the cell lines at each time point assessed were determined prior to performing the concentration response studies. Briefly, the NCI60 human tumor lines were grown as monolayers in RPMI 1640 medium supplemented with 10% FBS and 2 mmol/L L-glutamine.
An additional 2 lines were from the NCI60 cell line panel including melanomas, MALME-3M and SK-MEL-2. Pooled donor human umbilical vein endothelial cells (HUVEC, Lonza, cat. CC-2519) and human mesenchymal stem cells (hMSC, Lonza, cat. PT-2501) were purchased from Lonza (Walkersville, MD).
PDMR cell lines were grown in complete medium (DC medium): Dulbecco's modified Eagle's medium (DMEM)/F12 supplemented with 5% fetal bovine serum (FBS), 2 mM L-glutamine, 100 U/mL penicillin and 100 µg/ml streptomycin, 0.4 µg/ml hydrocortisone, 10 ng/ml epidermal growth factor (EGF) recombinant human protein, 24 µg/mL adenine, and 0.1 mg/mL primocin. During culture from frozen stock vials, PDMR cells were cultured in the same medium containing 10 µM Y-27632 (see Table 3). The PDCs were cultured in complete DMEM/F12 media without 10 microM Y-27632 dihydrochloride for at least two passages prior to the screen. The pooled donor HUVEC and hMSC were cultured in endothelial cell growth medium 2 (PromoCell, Heidelberg, Germany, cat. C-22011) and mesenchymal stem cell growth medium 2 (PromoCell, cat. C-28009), respectively. For all experiments, HUVEC and hMSC were used at passages </=5.
For the pre-screen, cell seeding densities were determined from a titration spanning the range from 5,000 to 313 cells per well. The mct-spheroids including 60% malignant cells, 25% HUVEC and 15% MSC dispensed as a mixture into U-bottom Ultra-Low Attachment 384-well plates (Corning, NY)
High-throughput Drug Combination Screening.
Prior to their inoculation into 384-well plates, malignant cells, HUVEC, and hMSC were removed from T flasks using TrypLE express (Thermo Fisher Scientific, cat. 12605036) and harvested by centrifugation for 5 min at 233 x g. […]
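Also: spheroids exposed to drugs for 7 days before readout.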

CCCS(=O)(=O)Nc1ccc(F)c(C(=O)c2c[nH]c3ncc(-c4ccc(Cl)cc4)cc23)c1F + CC(C)NCC(C(=O)N1CCN(c2ncnc3c2C(C)CC3O)CC1)c1ccc(Cl)cc1
pIC50 (curve of first compound, second compound 0.3 µM): 5.12
pIC50 (curve of first compound, second compound 0.949 µM): 5.17
pIC50 (curve of first compound, second compound 3 µM): 5.56
pIC50 (curve of first compound, second compound 9.49 µM): > 6.50
pIC50 (curve of first compound, second compound 30 µM): > 6.50
viability, T/C (second compound 0.3 µM, first compound 0.316 µM): 90.8%
viability, T/C (second compound 0.3 µM, first compound 1 µM): 98.1%
viability, T/C (second compound 0.3 µM, first compound 3.16 µM): 103%
viability, T/C (second compound 0.3 µM, first compound 10 µM): 23.8%
viability, T/C (second compound 0.3 µM, first compound 31.6 µM): 3.87%
viability, T/C (second compound 0.3 µM, first compound 100 µM): 75%
viability, T/C (second compound 0.949 µM, first compound 0.316 µM): 107%
viability, T/C (second compound 0.949 µM, first compound 1 µM): 114%
viability, T/C (second compound 0.949 µM, first compound 3.16 µM): 104%
viability, T/C (second compound 0.949 µM, first compound 10 µM): 16.6%
viability, T/C (second compound 0.949 µM, first compound 31.6 µM): 1.77%
viability, T/C (second compound 0.949 µM, first compound 100 µM): 46.8%
viability, T/C (second compound 3 µM, first compound 0.316 µM): 90.5%
viability, T/C (second compound 3 µM, first compound 1 µM): 76.8%
viability, T/C (second compound 3 µM, first compound 3.16 µM): 48%
viability, T/C (second compound 3 µM, first compound 10 µM): 7.53%
viability, T/C (second compound 3 µM, first compound 31.6 µM): 0.1%
viability, T/C (second compound 3 µM, first compound 100 µM): 3.35%
viability, T/C (second compound 9.49 µM, first compound 0.316 µM): 29.1%
viability, T/C (second compound 9.49 µM, first compound 1 µM): 28.8%
viability, T/C (second compound 9.49 µM, first compound 3.16 µM): 23.2%
viability, T/C (second compound 9.49 µM, first compound 10 µM): 3.54%
viability, T/C (second compound 9.49 µM, first compound 31.6 µM): 0.12%
viability, T/C (second compound 9.49 µM, first compound 100 µM): 1.39%
viability, T/C (second compound 30 µM, first compound 0.316 µM): 14.1%
viability, T/C (second compound 30 µM, first compound 1 µM): 15.2%
viability, T/C (second compound 30 µM, first compound 3.16 µM): 9.06%
viability, T/C (second compound 30 µM, first compound 10 µM): 0.4%
viability, T/C (second compound 30 µM, first compound 31.6 µM): 0.13%
viability, T/C (second compound 30 µM, first compound 100 µM): 0.3%

COC1CC2CCC(C)C(O)(O2)C(=O)C(=O)N2CCCCC2C(=O)OC(C(C)CC2CCC(OCCO)C(OC)C2)CC(=O)C(C)C=C(C)C(O)C(OC)C(=O)C(C)CC(C)C=CC=CC=C1C (configuration not stated)
viability, T/C (compound 0.000316 µM): 98.5% and 109%
viability, T/C (compound 0.001 µM): 93.9% and 116%
viability, T/C (compound 0.00316 µM): 96.7% and 111%
viability, T/C (compound 0.01 µM): 107% and 112%
viability, T/C (compound 0.0316 µM): 110% and 117%
viability, T/C (compound 0.1 µM): 110% and 83%
pIC50 (curve of compound): < 7.00
